PubChem BioAssay AID248 (DTP/NCI, 2004)
Several values for one entry are separate records, joined by “and”; a condition that tells them apart may be missing. Equal entries are not always repeated. Inconclusive results and toxic doses are left out. Rule as the data show it: active = T/C of 150% or more; inactive = T/C below 125%.

Tested on: L1210 leukemia ip in BDF1 mice, survival T/C
Test: NCI In Vivo Anticancer Drug Screen. Data for tumor model L1210 Leukemia (intraperitoneal) in B6D2F1 (BDF1) mice
Settings: endpoint: mean survival time, higher = longer survival
Method in brief: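 Each compound was tested against a transplantable tumor grown in mice. The endpoint was survival, with treated animals benchmarked against vehicle controls as a simple ratio.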

[1] = dose: 100.0 mg/kg/injection, schedule: Q01DX009 (ip), vehicle: Klucel (hydroxypropylcellulose) (HPC)
[2] = dose: 200.0 mg/kg/injection, schedule: Q01DX009 (ip), vehicle: Klucel (hydroxypropylcellulose) (HPC)
[3] = dose: 100.0 mg/kg/injection, schedule: Q01DX001 (ip), vehicle: saline
[4] = dose: 200.0 mg/kg/injection, schedule: Q01DX001 (ip), vehicle: saline
[5] = dose: 400.0 mg/kg/injection, schedule: Q01DX001 (ip), vehicle: saline
[6] = dose: 100.0 mg/kg/injection, schedule: Q01DX001 (ip), vehicle: carboxymethylcellulose (CMC)
[7] = dose: 200.0 mg/kg/injection, schedule: Q01DX001 (ip), vehicle: carboxymethylcellulose (CMC)
[8] = dose: 400.0 mg/kg/injection, schedule: Q01DX001 (ip), vehicle: carboxymethylcellulose (CMC)
[9] = dose: 25.0 mg/kg/injection, schedule: Q01DX009 (ip), vehicle: saline
[10] = dose: 50.0 mg/kg/injection, schedule: Q01DX009 (ip), vehicle: saline
[11] = dose: 100.0 mg/kg/injection, schedule: Q04DX003 (ip), vehicle: saline
[12] = dose: 200.0 mg/kg/injection, schedule: Q04DX003 (ip), vehicle: saline
[13] = dose: 400.0 mg/kg/injection, schedule: Q04DX003 (ip), vehicle: saline
[14] = dose: 100.0 mg/kg/injection, schedule: Q04DX003 (ip), vehicle: saline with Tween-80
[15] = dose: 200.0 mg/kg/injection, schedule: Q04DX003 (ip), vehicle: saline with Tween-80
[16] = dose: 100.0 mg/kg/injection, schedule: Q01DX009 (ip), vehicle: saline
[17] = dose: 400.0 mg/kg/injection, schedule: Q01DX009 (ip), vehicle: saline

Measured: T/C

O=S(=O)(O)CC(NCc1ccccc1)c1ccccc1 (stereo not drawn)
inactive: dose: 100.0 mg/kg/injection, schedule: Q04DX003 (ip), vehicle: other 100 % of control | dose: 200.0 mg/kg/injection, schedule: Q04DX003 (ip), vehicle: other 97 % of control | dose: 400.0 mg/kg/injection, schedule: Q04DX003 (ip), vehicle: other 94 % of control

S=c1[nH]c(-c2ccccc2)cs1
inactive: dose: 50.0 mg/kg/injection, schedule: Q01DX001 (ip), vehicle: other 90 % of control | dose: 100.0 mg/kg/injection, schedule: Q01DX001 (ip), vehicle: Klucel (hydroxypropylcellulose) (HPC) 96 % of control | dose: 100.0 mg/kg/injection, schedule: Q01DX001 (ip), vehicle: other 96 % of control | [1] 96 % of control | dose: 200.0 mg/kg/injection, schedule: Q01DX001 (ip), vehicle: Klucel (hydroxypropylcellulose) (HPC) 95 % of control | dose: 200.0 mg/kg/injection, schedule: Q01DX001 (ip), vehicle: other 100 % of control | [2] 96 % of control | dose: 400.0 mg/kg/injection, schedule: Q01DX001 (ip), vehicle: Klucel (hydroxypropylcellulose) (HPC) 95 % of control | dose: 400.0 mg/kg/injection, schedule: Q01DX001 (ip), vehicle: other 96 % of control | dose: 400.0 mg/kg/injection, schedule: Q01DX009 (ip), vehicle: Klucel (hydroxypropylcellulose) (HPC) 97 % of control

CC(C)(C)C(=O)Nc1n[nH]c(C#N)c1C#N
inactive: dose: 50.0 mg/kg/injection, schedule: Q04DX002 (ip), vehicle: other 95 % of control | dose: 100.0 mg/kg/injection, schedule: Q04DX002 (ip), vehicle: other 106 % of control | dose: 200.0 mg/kg/injection, schedule: Q04DX002 (ip), vehicle: other 113 % of control

COC1=CCC2=C(CCO2)C1
inactive: dose: 100.0 mg/kg/injection, schedule: Q04DX003 (ip), vehicle: acetone 95 % of control | dose: 200.0 mg/kg/injection, schedule: Q04DX003 (ip), vehicle: acetone 95 % of control | dose: 400.0 mg/kg/injection, schedule: Q04DX003 (ip), vehicle: acetone 96 % of control

O=C(c1ccccc1)c1cc(CN(C2CCCCC2)C2CCCCC2)c(O)cc1O
inactive: [3] 90 % of control | [4] 91 % of control | [5] 96 % of control

O=c1ccc2cc(Cl)ccc2o1
inactive: dose: 50.0 mg/kg/injection, schedule: Q01DX001 (ip), vehicle: carboxymethylcellulose (CMC) 98 % of control | [6] 98 % of control | [7] 93 % of control | [8] 98 % of control

CCOC(=O)Cn1c(=O)cc(C=O)c2ccccc21
inactive: [6] 91 % of control | [7] 91 % of control | [8] 89 % of control

O=C(Nc1cccc(F)c1)Nc1ccc(Cl)cc1Cl
inactive: [1] 96 % of control | [2] 91 % of control

CCN1C(=O)C(Cl)=C(Cl)C1=O
inactive: dose: 1.56 mg/kg/injection, schedule: Q01DX009 (ip), vehicle: saline with Tween-80 94 % of control | dose: 3.13 mg/kg/injection, schedule: Q01DX009 (ip), vehicle: saline with Tween-80 91 % of control | dose: 6.25 mg/kg/injection, schedule: Q01DX009 (ip), vehicle: saline with Tween-80 92 % of control and 87 % of control

Cc1ccc(S(=O)(=O)Nc2ccc3ncccc3c2)cc1
inactive: [3] 103 % of control | [4] 102 % of control | [5] 96 % of control

O=C(O)c1cc(N2CCCC2)ccn1
inactive: [3] 96 % of control | [4] 101 % of control

O=[N+]([O-])c1cc([N+](=O)[O-])c2nn(-c3ccccc3)[n+]([O-])c2c1
inactive: dose: 100.0 mg/kg/injection, schedule: Q04DX003 (ip), vehicle: Klucel (hydroxypropylcellulose) (HPC) 101 % of control | dose: 200.0 mg/kg/injection, schedule: Q04DX003 (ip), vehicle: Klucel (hydroxypropylcellulose) (HPC) 97 % of control | dose: 400.0 mg/kg/injection, schedule: Q04DX003 (ip), vehicle: Klucel (hydroxypropylcellulose) (HPC) 98 % of control

[N-]=[N+]=NC(=O)C1C2CC3C(C2)C31 (stereo not drawn)
inactive: [6] 95 % of control | [7] 88 % of control

OCCCCc1nccc2c1[nH]c1ccccc12
inactive: [9] 93 % of control | [10] 88 % of control | [6] 86 % of control | [7] 93 % of control | [8] 98 % of control

O=P(O)(CCP(=O)(O)c1ccccc1)c1ccccc1
inactive: dose: 100.0 mg/kg/injection, schedule: Q04DX002 (ip), vehicle: Klucel (hydroxypropylcellulose) (HPC) 95 % of control | dose: 200.0 mg/kg/injection, schedule: Q04DX002 (ip), vehicle: Klucel (hydroxypropylcellulose) (HPC) 91 % of control | dose: 400.0 mg/kg/injection, schedule: Q04DX002 (ip), vehicle: Klucel (hydroxypropylcellulose) (HPC) 106 % of control

CC1(C)OCC(C2OC(N)C3OC(C)(C)OC32)O1 (stereo not drawn)
inactive: dose: 100.0 mg/kg/injection, schedule: Q04DX002 (ip), vehicle: saline 97 % of control | dose: 200.0 mg/kg/injection, schedule: Q04DX002 (ip), vehicle: saline 113 % of control | dose: 400.0 mg/kg/injection, schedule: Q04DX002 (ip), vehicle: saline 103 % of control

CN(C)CCc1ccc2cc3ccc(CCN(C)C)cc3nc2c1
inactive: dose: 6.25 mg/kg/injection, schedule: Q04DX002 (ip), vehicle: saline with Tween-80 102 % of control | dose: 12.5 mg/kg/injection, schedule: Q04DX002 (ip), vehicle: saline with Tween-80 105 % of control | dose: 25.0 mg/kg/injection, schedule: Q04DX002 (ip), vehicle: saline with Tween-80 105 % of control

O=[N+]([O-])c1ccc(Cl)c2nonc12
inactive: dose: 1.65 mg/kg/injection, schedule: Q04DX002 (ip), vehicle: Klucel (hydroxypropylcellulose) (HPC) 89 % of control | dose: 3.12 mg/kg/injection, schedule: Q04DX002 (ip), vehicle: Klucel (hydroxypropylcellulose) (HPC) 92 % of control | dose: 6.25 mg/kg/injection, schedule: Q04DX002 (ip), vehicle: Klucel (hydroxypropylcellulose) (HPC) 94 % of control

CC(SCc1cc(=O)[nH]c(=O)[nH]1)C(=O)O (stereo not drawn)
inactive: [11] 98 % of control | [12] 98 % of control | [13] 96 % of control

C/C(=N/C(=O)NN)c1ccc(Cl)cc1
inactive: dose: 100.0 mg/kg/injection, schedule: Q01DX001 (ip), vehicle: saline with Tween-80 108 % of control | [14] 93 % of control | dose: 200.0 mg/kg/injection, schedule: Q01DX001 (ip), vehicle: saline with Tween-80 95 % of control | [15] 98 % of control | dose: 400.0 mg/kg/injection, schedule: Q01DX001 (ip), vehicle: saline with Tween-80 101 % of control

CN1CCC(=C(C#N)C#N)CC1
inactive: [11] 91 % of control

CCn1c(=O)oc2ccccc2c1=S
inactive: [11] 100 % of control | [12] 96 % of control

C/C(=N\OCc1cc2c(cc1Cl)OCO2)C(=O)O
inactive: [14] 100 % of control | [15] 99 % of control | dose: 400.0 mg/kg/injection, schedule: Q04DX003 (ip), vehicle: saline with Tween-80 91 % of control

COc1cc2c(cc1O)CN(CCC(C)=O)CC2O (stereo not drawn)
inactive: [9] 101 % of control | [10] 93 % of control | [16] 86 % of control

CCCCCCCCCCCCCCCCCCCCCCCCCC(=O)OCCCCCCCCCCCCCC
inactive: [16] 107 % of control | [11] 109 % of control | dose: 200.0 mg/kg/injection, schedule: Q01DX009 (ip), vehicle: saline 96 % of control | [12] 97 % of control | [17] 94 % of control | [13] 98 % of control

CC(=O)OCC1CC2CC(O)C1C2 (stereo not drawn)
inactive: dose: 75.0 mg/kg/injection, schedule: Q01DX001 (ip), vehicle: acetone 102 % of control

c1ccc2c(C(CCN3CCCCC3)CNC3=NCCN3)cccc2c1 (stereo not drawn)
inactive: dose: 5.0 mg/kg/injection, schedule: Q04DX003 (ip), vehicle: saline with Tween-80 96 % of control | dose: 10.0 mg/kg/injection, schedule: Q04DX003 (ip), vehicle: saline with Tween-80 105 % of control | dose: 20.0 mg/kg/injection, schedule: Q04DX003 (ip), vehicle: saline with Tween-80 98 % of control

c1ccc2c(c1)C1CC(N3CCCCC3)C2c2ccccc21 (stereo not drawn)
inactive: [16] 102 % of control | dose: 100.0 mg/kg/injection, schedule: Q04DX003 (ip), vehicle: alcohol 95 % of control | dose: 200.0 mg/kg/injection, schedule: Q04DX003 (ip), vehicle: alcohol 95 % of control | [17] 100 % of control | dose: 400.0 mg/kg/injection, schedule: Q04DX003 (ip), vehicle: alcohol 93 % of control
